The test system of series [1] is MCF-7. As to the kind of experiment: ATP-based luminescence cell viability assay (ViaLight), 72 h. More on the design: species or system human. The note with it: Homo sapiens, MCF7, 72 h, 72 h treatment, read-out: EC50 Values of Olive Oil Polyphenols. As to the method: (§1) The antiproliferative/cytotoxic effects of the selected OOPs on each cell line were assessed by measuring the cellular ATP levels after 72 h treatments using an ATP-based luminescence assay. This assay, initially developed as a tumor chemosensitivity assay, has shown considerable promise as a general in vitro toxicity assay due to its high sensitivity that allows the detection of a small number of cells. Consequently, it can be applied to both cancer cell lines and primary tissue cells. […] The EC50 values were calculated by nonlinear regression (curve fit) using a sigmoidal dose–response equation (Figure 2A and Figure S2).
(§2) The OOPs tested in this study were first dissolved in an appropriate DMSO volume such as to prepare a final stock solution of 50 mM, which was further used to prepare various compound concentrations in DMSO-based solutions. The final DMSO concentration in the cell culture was maintained constant in all treated groups of any given experiment and never exceeded the value of 0.2% (v/v). For the treatment experiments, cells were plated in 96-well culture plates, in 100 μL of complete medium at a seeding density of 5000–10,000 cells/well—depending on cells’ size and doubling time—and were allowed to adhere overnight (~16 h). The next day, 150 μL of complete medium was added to each well and the cells were treated with various concentrations of OOPs. Each concentration was tested in triplicate and was repeated 2–3 times. To prepare the final concentration solutions, 0.5 μL of a 500× stock of each tested compound in DMSO was added directly into each well in a final volume of 250 μL culture medium and was gently mixed by pipetting. Control wells were prepared under the same experimental conditions by adding only DMSO at a final concentration of 0.2% (v/v). Compounds were not renewed during the entire period of cell exposure. All cells were cultured at 37 °C in a 5% (v/v) CO2 for 24, 48 or 72 h.
(§3) Briefly, after the treatment with OOPs, the adapted medium was removed from the dish wells and the cells were washed twice with medium without FBS. Then, the C-lysis (LT27-076) was diluted in PBS (1:2) and a volume of 50 μL was added to each well. Cells were incubated with C-lysis for at least 10 min. Finally, an equal volume of lysed cells from each well and ATP monitoring reagent (AMR; LT27-212) was transferred to the wells of a white-walled illuminometer plate (Greiner bio-one; 655074). Cell viability was quantified by measuring luminescence using a multi-mode microplate reader Safire^2 Tecan (software Magellan V6.00 STD.2PC WIN.20000/XP).

Series [2] has as its system MDA-MB 231. The series is described as above. Also noted: species or system human. The note with it: Homo sapiens, MDA-MB-231, 72 h, MDA-MB 231; 72 h treatment; read-out: EC50 Values of Olive Oil Polyphenols. As to the method:
as §1, §2, §3

The subject of series [3] is SK-BR-3. Described as above. More on the design: species or system human. The note with it: Homo sapiens, SK-BR-3, 72 h, SK-BR-3; 72 h treatment; read-out: EC50 Values of Olive Oil Polyphenols. As to the method:
as §1, §2, §3

Series [4] relates to sixteen human cancer cell lines originating from eight different tissues. Kind of series: ATP-based luminescence cell viability assay, whole panel. As to the method:
as §1, §2, §3

In series [5] the test system is three breast cancer cell lines (MDA-MB-231, SK-BR-3 and MCF-7). As to the kind of experiment: ATP-based luminescence cell viability assay, breast panel. Also noted: species or system human. As to the method: as §1
The calculated EC50 values ranged between 9.1–100 μΜ (Table 1). The bioactivity of the oleocanthalic acid (7), studied here for the first time for its antiproliferative/cytotoxic activity, was initially evaluated systematically in the three breast cancer cell lines using a concentration range of 10–100 μM. In all cases, the viability measured was ≥80%, predicting EC50 values > 100 μΜ. […] For this reason, oleocanthalic acid (7) was excluded from the rest of this study.
as §2
Briefly, after the treatment with OOPs, the adapted medium was removed from the dish wells and the cells were washed twice with medium without FBS. Then, the C-lysis (LT27-076) was diluted in PBS (1:2) and a volume of 50 μL was added to each well. […] Cell viability was quantified by measuring luminescence using a multi-mode microplate reader Safire^2 Tecan (software Magellan V6.00 STD.2PC WIN.20000/XP).

By EC50 is commonly meant the concentration at which the effect is half-maximal.

On to `C/C=C(/C=O)[C@@H](CC(=O)O)CC(=O)OCCc1ccc(O)cc1` [compound 7, oleocanthalic acid], for which the EC50 in series [1] was > 100 µM; in series [2], > 100 µM; in series [3] it was > 100 µM; in series [4] (Homo sapiens, 72 h treatment, range across cancer cell lines, read-out: EC50, range over the cancer cell lines), > 100 µM; in series [5] (Homo sapiens, MDA-MB-231, SK-BR-3 and MCF-7, 72 h), > 100 µM. Also, the “Bioactivity range on cancer cell lines (grade in words)” value in series [4] (Figure 3, sixteen cancer cell lines) is “Low activity”. Besides, the viability measured in series [5] (three breast cancer cell lines, concentration range of 10–100 μM) was ≥ 80%.

These data come from publication PMC9820430, “New Affordable Methods for Large-Scale Isolation of Major Olive Secoiridoids and Systematic Comparative Study of Their Antiproliferative/Cytotoxic Effect on Multiple Cancer Cell Lines of Different Cancer Origins” (International Journal of Molecular Sciences, 2022).
